Values after ≈ are worked out from the molar mass of the structure shown.
Columns and labels:
[1] = system: Cryptococcus neoformans ATCC 90112; test: In vitro antifungal activity, yeasts, NCCLS M27-A; type: cell-based; details: Table 9
Description: (§1) The assay used for yeasts (Candida; Cryptococcus) is that of the National Committee for Clinical Laboratory Standards. 1997. Reference Method for Broth Dilution Antifungal Susceptibility Testing of Yeasts: Approved Standard. NCCLS document M27-A.Villanova, Pa., USA as published in Ghannoum, M. A., A. S. Ibrahim, Y. Fu, M. C. Shafiq, J. E Edwards, Jr. and R. S. Criddle. 1992. Susceptibility testing of Cryptococcus neoformans: A microdilution technique. J. Clin. Microbiol. 30:2881-2886.

[2] = system: Candida albicans ATCC 10231; test: In vitro antifungal activity, yeasts, NCCLS M27-A; type: cell-based; details: Table 9
Description: as §1

[3] = system: Fusarium solani 04-132-4207; test: In vitro antifungal activity, filamentous fungi, NCCLS M38-A; type: cell-based
Description: (§2) The assay used for filamentous fungi (Aspergillus; Scedosporium; Fusarium) was that published by the National Committee for Clinical Laboratory Standards. 2002. Reference Method for Broth Dilution Antifungal Susceptibility Testing of Filamentous Fungi: Approved Standard. NCCLS document M38-A.Villanova, Pa., USA.

[4] = system: Scedosporium prolificans 1-003-040; test: as above; type: cell-based
Description: as §2

[5] = system: Scedosporium apiospermum 1-003-056; test: as above; type: cell-based
Description: as §2

[6] = system: Aspergillus flavus ATCC 204 304; test: as above; type: cell-based
Description: as §2

[7] = system: Aspergillus terreus ATCC 03-232-378; test: as above; type: cell-based
Description: as §2

[8] = system: Aspergillus fumigatus ATCC 204 305; test: as above; type: cell-based
Description: as §2

[9] = system: Cryptococcus neoformans ATCC 90112; test: Antifungal susceptibility testing, microdilution MIC; type: cell-based
Summary of the method: (§3)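 Standard microdilution method, run in duplicate, using serial dilutions of cationic compounds.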

[10] = system: Candida albicans ATCC 10231; test: as above; type: cell-based
Summary of the method: as §3

[11] = system: secreted phospholipase B (PLB activity); test: Radiometric assay, secreted PLB activity; type: biochemical, Cryptococcus neoformans H99; details: for PLB, percentage inhibition of activity: Secretory Cryptococcal H99 Phospholipase
Summary of the method: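 Secreted enzyme was taken from cell-free supernatant of Cryptococcus isolate H99 cells incubated 24 h at 37° C. Reactions at 37° C, pH 4.0 imidazole acetate, used 800 μM DPPC with [14C]-dipalmitoyl PC and 1 μg protein for 22 min. PLB was measured as radiolabelled PC loss by TLC, with inhibition expressed versus inhibitor-free control; compounds were tested at 25 and 250 μM, then 2.5 and 0.25 μM.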

[12] = biological target: T1, Porcine pancreatic phospholipase A2 (Sus scrofa, UniProt P00592); test: Pancreatic phospholipase assay; type: biochemical; details: read-out: ppPLA2, percentage inhibition of activity
T1 construct: purchased Sigma, St. Louis MO, USA
T1 sequence (P00592 23-146): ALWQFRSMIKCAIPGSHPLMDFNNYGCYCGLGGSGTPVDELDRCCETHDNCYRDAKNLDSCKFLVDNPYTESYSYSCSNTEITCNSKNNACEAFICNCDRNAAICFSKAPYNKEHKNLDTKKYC
Method: Pancreatic phospholipase assay. Porcine pancreatic phospholipase A2 suspension in 3.2M ammonium sulfate (2.9 mg protein/mL, Sigma St.Louis Mo., USA) was used. One part of well mixed enzyme suspension was added to 4 parts of buffer (10 mM Tris/HCl, pH 8.2; 10 mM CaCl2. Activity and inhibition by test compounds was then measured by the radiometric method described in Example 2 for fungal PLB activity. However, 25 μL enzyme solution was used, and the reaction time was 1 hour. These conditions result in ˜60% substrate conversion in the inhibitor-free control.

[13] = system: C. neoformans strain H99 phospholipases; test: Inhibition of C. neoformans strain H99 phospholipases (all enzymes and activities); type: biochemical, Cryptococcus neoformans H99
Method: Radiometric assay method for phospholipases. Enzyme activities were measured as described previously in a final volume of 125 μL at 37° C. For the determination of secreted PLB activity, carrier dipalmitoyl phosphatidylcholine (DPPC, final concentration 800 μM) and 1,2-di[1-^14C] palmitoyl phosphatidylcholine (20,000 dpm) were dried under nitrogen and suspended in 125 mM imidazole acetate buffer (assay buffer, pH 4.0) by sonication using a Branson 450 sonifier. The reaction time was 22 min, using 1 μg total protein and PLB activity was determined by the rate of decrease of the radiolabelled PC substrate, with appearance of the label in free fatty acid. […] These activities were measured by the appearance of radiolabel from PC in Lyso PC, diacylglycerol and phosphatidic acid, respectively.
Secreted LPL and LPTA activities were measured simultaneously in a reaction mixture containing 1-[^14C]palmitoyl lyso-PC (25,000 dpm) and carrier lyso-PC (final concentration 200 μM) in assay buffer. The reaction time was […] with 1 μg of total protein and LPL activity was measured by the rate of loss of 1-[^14C]palmitoyl lyso-PC with release of radiolabelled fatty acids. […]
All reactions were terminated by adding 0.5 mL of chloroform:methanol (2:1 v/v). […] 37:911-917, separated by TLC and quantified as previously described. […]

[14] = system: secreted phospholipase B (LPL/LPTA activities); test: Radiometric assay, secreted LPL and LPTA activities (Lyso assay); type: biochemical, Cryptococcus neoformans H99
Method: Fungal isolates and media. […] Isolate H99 was kindly supplied by Dr. Gary Cox (Duke University Medical Center, Durham, N.C., USA), and subcultured onto Sabouraud dextrose agar (SDA) at 30° C.
Preparation of supernatants containing secreted phospholipase activities. Isolate H99 was grown to confluence on SDA in 16 cm diameter Petri dishes for 72 h at 30° C. in air. Cells scraped from 10-20 dishes were washed sequentially with isotonic saline and imidazole buffer (10 mM imidazole, 2 mM CaCl2, 2 mM Mg Cl2, 56 mM D-Glucose, made up in isotonic saline, pH 5.5), resuspended in a volume of this buffer of about 10% of the cell volume, and incubated for 24 h at 37° C. The cell-free supernatant was separated by centrifugation as previously described and stored at −70° C.
Secreted LPL and LPTA activities were measured simultaneously in a reaction mixture containing 1-[^14C]palmitoyl lyso-PC (25,000 dpm) and carrier lyso-PC (final concentration 200 μM) in assay buffer. The reaction time was […] with 1 μg of total protein and LPL activity was measured by the rate of loss of 1-[^14C]palmitoyl lyso-PC with release of radiolabelled fatty acids. LPTA activity was estimated from the rate of formation of radiolabelled PC.
All reactions were terminated by adding 0.5 mL of chloroform:methanol (2:1 v/v). The reaction products were extracted by the method as disclosed in Bligh, E. C. and W. J. Dyer. 1959 ‘A rapid method of total lipid extraction and purification.’ Can. J. Biochem. Physiol. 37:911-917, separated by TLC and quantified as previously described. In the case of PLC activity, the TLC plates were developed in petroleum ether (BP 60-80° C.): diethyl ether: acetic acid (90:15:1, v/v/v) instead of chloroform:methanol:water (65:25:4, v/v/v).
Preparation of inhibitors and use in assays. The following compounds were tested (for structures, see FIG. 2): compound 1, 1,12-bis(tributylphosphonium)dodecane dibromide (Fluka AG, Buchs, Switzerland); compound 2, 1,10-bis(tributylammonium)-decane dibromide; compound 3, 1,12-bis(tributylammonium)do-decane dibromide (both synthesised in-house); compound 4, 1,10-bis(trimethylammonium)decane dibromide [“decamethonium”] (Sigma, St. Louis Mo., USA). All compounds were prepared as stock solutions of 700 μM in assay buffer containing 5 mM EDTA, which was then diluted serially with buffer to obtain solutions of 70, 7, 0.7 and 0.07 μM. In each assay, 45 μL of these solutions was used, and the final volume of 125 μL was made up of substrate, enzyme and buffer. The radiometric assay was carried out as above. Inhibition was calculated as the percent of substrates (DPPC or Lyso-PC) remaining in the case of PLB and LPL activities, or of DPPC produced, in the case of the LPTA activity. The amounts converted, or produced, in the inhibitor-free control were normalised to 100%, and the inhibition calculated against it. All assays were done in triplicate.
Under these conditions only PLB, LPL and LPTA activities (both secreted and cell-associated) were measured. Initially, compounds deemed to be potential inhibitors were assayed at 25 and 250 μM. Those showing some inhibition were then also assayed at 2.5 and 0.25 μM.

[15] = system: Staphylococcus aureus 25923; test: In vitro antibacterial activity, NCCLS M7-A6; type: cell-based
Method: (§4) Two bis-cationic compounds were tested for antibacterial activity. The assay used was that published by the National Committee for Clinical Laboratory Standards. 2003. Methods for Dilution Antimicrobial Susceptibility Tests for Bacteria That Grow Aerobically: Approved Standard—Sixth Edition. NCCLS document M7-A6. Villanova, Pa., USA.

Escherichia coli 25922 = test: In vitro antibacterial activity, NCCLS M7-A6; type: cell-based
Method: as §4

[16] = system: Streptococcus pneumonia 49619; test: In vitro antibacterial activity, NCCLS M7-A6; type: cell-based; details: Streptococcus pneumoniae
Method: as §4

[17] = system: MRSA (methicillin resistant S. aureus); test: In vitro antibacterial activity, NCCLS M7-A6; type: cell-based; details: Staphylococcus aureus, read-out: MIC MRSA (methicillin resistant S. aureus)
Method: as §4

## C[C@@H]1[C@H](O)[C@@H](C)/C=C/C=C/C=C/C=C/C=C/C=C/C=C/[C@H](O[C@@H]2O[C@H](C)[C@@H](O)[C@H](N)[C@@H]2O)C[C@@H]2O[C@](O)(C[C@@H](O)C[C@@H](O)[C@H](O)CC[C@@H](O)C[C@@H](O)CC(=O)O[C@H]1C)C[C@H](O)[C@H]2C(=O)O [Amphotericin B, reference compound]
[1]
  MIC: 0.54 µM (≈ 0.499 µg/mL)
  MIC Cryptococcus neoformans ATCC 90112: 0.50 mg/L (≈ 0.541 µM)
[2]
  MIC: 0.54 µM (≈ 0.499 µg/mL)
  MIC Candida albicans ATCC 10231: 0.50 mg/L (≈ 0.541 µM)
[3]
  MIC: 0.27 µM (≈ 0.25 µg/mL)
  MIC Fusarium solani 04-132-4207: 0.25 mg/L (≈ 0.271 µM)
[4]
  MIC: 4.3 µM (≈ 3.97 µg/mL)
  MIC Scedosporium prolificans 1-003-040: 4.0 mg/L (≈ 4.33 µM)
[5]
  MIC: 0.54 µM (≈ 0.499 µg/mL)
  MIC Scedosporium apiospermum 1-003-056: 0.50 mg/L (≈ 0.541 µM)
[6]
  MIC: 0.54 µM (≈ 0.499 µg/mL)
  MIC Aspergillus flavus ATCC 204 304: 0.50 mg/L (≈ 0.541 µM)
[7]
  MIC: 1.1 µM (≈ 1.02 µg/mL)
  MIC Aspergillus terreus ATCC 03-232-378: 1.0 mg/L (≈ 1.08 µM)
[8]
  MIC: 0.54 µM (≈ 0.499 µg/mL)
  MIC Aspergillus fumigatus ATCC 204 305: 0.50 mg/L (≈ 0.541 µM)
[9]; Table 6, no visible growth after 72 h at 35° C., read-out: MIC C. neof. ATCC 90112
  MIC: 0.55 µM (≈ 0.508 µg/mL)
[10]; Table 6, no visible growth after 48 h at 35° C., read-out: MIC C. albicans ATCC 10231
  MIC: 1.1 µM (≈ 1.02 µg/mL)

## C[N+](C)(C)CCCCCCCCCC[N+](C)(C)C [Compound 4, 1,10-bis(trimethylammonium)decane dibromide, reference compound]
[11]; 0.25 μM
  PLB assay (% inhibition): 250 μM = 0% 25 μM = 0% 2.5 μM = 0% 0.25 μM = 0%
[11]; 2.5 μM
  PLB assay (% inhibition): 250 μM = 0% 25 μM = 0% 2.5 μM = 0% 0.25 μM = 0%
  PLB, percentage inhibition of activity: 0%
[11]; 25 μM
  PLB assay (% inhibition): 250 μM = 0% 25 μM = 0% 2.5 μM = 0% 0.25 μM = 0%
  PLB, percentage inhibition of activity: 0%
[11]; 250 μM
  PLB assay (% inhibition): 250 μM = 0% 25 μM = 0% 2.5 μM = 0% 0.25 μM = 0%
  PLB, percentage inhibition of activity: 0%
[12]
  inhibition at 2.5 µM: 0%
  inhibition at 25 µM: 0%
  inhibition at 250 µM: 0%
[13]
  enzyme (phospholipase) inhibition, in words: neither enzyme inhibition
[14]; 0.25 μM
  Lyso assay (% inhibition) LPL: 250 μM = 0% 25 μM = 0% 2.5 μM = 0% 0.25 μM = 0%
  Lyso assay (% inhibition) LPTA: 250 μM = 0% 25 μM = 0% 2.5 μM = 0% 0.25 μM = 0%
[14]; 2.5 μM
  Lyso assay (% inhibition) LPL: 250 μM = 0% 25 μM = 0% 2.5 μM = 0% 0.25 μM = 0%
  Lyso assay (% inhibition) LPTA: 250 μM = 0% 25 μM = 0% 2.5 μM = 0% 0.25 μM = 0%
[14]; 25 μM
  Lyso assay (% inhibition) LPL: 250 μM = 0% 25 μM = 0% 2.5 μM = 0% 0.25 μM = 0%
  Lyso assay (% inhibition) LPTA: 250 μM = 0% 25 μM = 0% 2.5 μM = 0% 0.25 μM = 0%
[14]; 250 μM
  Lyso assay (% inhibition) LPL: 250 μM = 0% 25 μM = 0% 2.5 μM = 0% 0.25 μM = 0%
  Lyso assay (% inhibition) LPTA: 250 μM = 0% 25 μM = 0% 2.5 μM = 0% 0.25 μM = 0%
[9]; Cryptococcus neoformans, ATCC90112, Table 6, no visible growth after 72 h at 35° C., read-out: MIC C. neof. ATCC 90112
  MIC: 88 µM
[9]; Cryptococcus neoformans, ATCC90112, Table 7, read-out: MIC (μM) Crypto. (ATCC 90112)
  MIC: ≥ 350 µM
[10]; Candida albicans, ATCC10231, Table 6, no visible growth after 48 h at 35° C., read-out: MIC C. albicans ATCC 10231
  MIC: > 350 µM
[10]; Candida albicans, ATCC10231, Table 7, read-out: MIC (μM) C. alb. (10231)
  MIC: ≥ 350 µM

## CC1(C)S[C@@H]2[C@H](NC(=O)[C@H](N)c3ccc(O)cc3)C(=O)N2[C@H]1C(=O)O [amoxicillin, reference compound]
[15]
  MIC: 0.25 to 0.5 mg/L (≈ 0.684 to 1.37 µM)
Escherichia coli 25922
  MIC: 8 to 16 mg/L (≈ 21.9 to 43.8 µM)
[16]
  MIC: 0.06 to 0.12 mg/L (≈ 0.164 to 0.328 µM)

## CN[C@H](CC(C)C)C(=O)N[C@H]1C(=O)N[C@@H](CC(N)=O)C(=O)N[C@H]2C(=O)N[C@H]3C(=O)N[C@H](C(=O)N[C@H](C(=O)O)c4cc(O)cc(O)c4-c4cc3ccc4O)[C@H](O)c3ccc(c(Cl)c3)Oc3cc2cc(c3O[C@@H]2O[C@H](CO)[C@@H](O)[C@H](O)[C@H]2O[C@H]2C[C@](C)(N)[C@H](O)[C@H](C)O2)Oc2ccc(cc2Cl)[C@H]1O [vancomycin, reference compound]
[17]
  MIC: 1 mg/L (≈ 0.69 µM)
